Measured values from ChEMBL document CHEMBL4418298, “Cyp8b1 and uses thereof in therapeutic and diagnostic methods” (2014).

Target: T1, 7-alpha-hydroxycholest-4-en-3-one 12-alpha-hydroxylase (Homo sapiens, UniProt Q9UNU6)
T1 sequence (Q9UNU6 whole entry): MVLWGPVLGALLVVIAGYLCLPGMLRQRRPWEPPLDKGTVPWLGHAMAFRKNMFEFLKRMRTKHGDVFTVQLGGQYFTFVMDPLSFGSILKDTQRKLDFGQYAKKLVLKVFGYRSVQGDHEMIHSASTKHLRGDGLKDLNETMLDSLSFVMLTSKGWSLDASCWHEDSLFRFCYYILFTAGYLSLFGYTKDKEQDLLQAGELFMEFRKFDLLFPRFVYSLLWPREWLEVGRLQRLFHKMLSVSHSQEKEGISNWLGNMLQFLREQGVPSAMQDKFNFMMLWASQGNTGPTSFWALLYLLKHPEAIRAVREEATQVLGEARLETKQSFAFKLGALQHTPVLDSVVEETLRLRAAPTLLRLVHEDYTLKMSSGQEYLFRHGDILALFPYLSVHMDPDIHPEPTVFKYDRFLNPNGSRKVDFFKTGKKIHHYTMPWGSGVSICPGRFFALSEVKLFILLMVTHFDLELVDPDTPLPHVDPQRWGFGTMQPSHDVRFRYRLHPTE
Test: Inhibition of CYP8B1 in human liver microsomes using D7-7alpha-hydroxy-4-cholesten-3-one as substrate preincubated for 20 mins followed by substrate addition in presence of NADPH by UPLC-ESI-MS/MS analysis

Row | SMILES | IC50
1 | Clc1ccc(COC(Cn2ccnc2)c2ccc(Cl)cc2Cl)cc1 (stereo not drawn) [ECONAZOLE] | 0.31 µM
2 | CC[C@@H]([C@H](C)O)n1ncn(-c2ccc(N3CCN(c4ccc(OC[C@@H]5CO[C@@](Cn6cncn6)(c6ccc(F)cc6F)C5)cc4)CC3)cc2)c1=O [POSACONAZOLE] | 3.8 µM
3 | CC(C)CCC[C@@H](C)[C@H]1CC[C@H]2[C@@H]3[C@H](O)C[C@@H]4C[C@H](O)CC[C@]4(C)[C@H]3C[C@H](O)[C@]12C | 7.6 µM
4 | N[C@@H]1C[C@H]1c1ccccc1.N[C@H]1C[C@@H]1c1ccccc1 (racemic) [TRANYLCYPROMINE] | 7.8 µM
5 | CCC(C)n1ncn(-c2ccc(N3CCN(c4ccc(OC[C@H]5CO[C@](Cn6cncn6)(c6ccc(Cl)cc6Cl)O5)cc4)CC3)cc2)c1=O (stereo partly drawn) [ITRACONAZOLE] | 4.7 µM
6 | Clc1ccccc1C(c1ccccc1)(c1ccccc1)n1ccnc1 [CLOTRIMAZOLE] | 0.8 µM
7 | Clc1ccc(COC(Cn2ccnc2)c2ccc(Cl)cc2Cl)c(Cl)c1 (stereo not drawn) [MICONAZOLE] | 1.5 µM
8 | CC(=O)N1CCN(c2ccc(OC[C@H]3CO[C@](Cn4ccnc4)(c4ccc(Cl)cc4Cl)O3)cc2)CC1 [KETOCONAZOLE] | 2.2 µM
